In one experiment the target is T1, DPB1*02:01 (Homo sapiens, UniProt P04440+P20036, A65V/A84D/A85E/K98E).
T1 sequence (P20036 29-260): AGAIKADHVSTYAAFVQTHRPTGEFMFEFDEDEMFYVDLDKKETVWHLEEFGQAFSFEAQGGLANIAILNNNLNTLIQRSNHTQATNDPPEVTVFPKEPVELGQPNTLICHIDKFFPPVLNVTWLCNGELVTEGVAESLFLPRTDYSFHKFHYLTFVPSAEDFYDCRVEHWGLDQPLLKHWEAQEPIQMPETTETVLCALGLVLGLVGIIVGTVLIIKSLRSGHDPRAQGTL
T1 sequence (P04440 30-258 A65V/A84D/A85E/K98E): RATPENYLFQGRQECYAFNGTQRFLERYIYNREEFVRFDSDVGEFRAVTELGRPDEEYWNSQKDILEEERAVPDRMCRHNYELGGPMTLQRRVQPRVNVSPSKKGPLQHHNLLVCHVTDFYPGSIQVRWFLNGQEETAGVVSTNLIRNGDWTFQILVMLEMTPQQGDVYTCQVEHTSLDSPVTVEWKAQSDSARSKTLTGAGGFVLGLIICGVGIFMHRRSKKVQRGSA
The experiment can be described thus: competition binding assay, purified HLA DPB1*02:01.

Another experiment deals with DRB4*01:01 (Homo sapiens, UniProt P01903+P13762, G164S). The experiment can be described thus: competition binding assay, purified HLA DRB4*01:01.
Another experiment has as its target DRB1*03:01 (Homo sapiens, UniProt P01903+P01911, A100K/A102G/A103R/A169T/F55Y/I96L/K41T/L162R/M171V/P40S/Q125H/Q178H/Q39Y/R42S/S66N/T106N/T262R/W38E/Y61H). The experiment can be described thus: competition binding assay, purified HLA DRB1*03:01.
For another experiment, the target named is T2, DPB1*04:02 (Homo sapiens, UniProt P04440+P20036, A65V/A84D/A85E/L207M).
T2 sequence (P04440 30-258 A65V/A84D/A85E/L207M): T1 sequence (P04440 30-258 A65V/A84D/A85E/K98E) with E69K, L178M
T2 sequence (P20036 29-260): T1 sequence (P20036 29-260)
The experiment can be described thus: competition binding assay, purified HLA DPB1*04:02.

The target of another experiment is DRB1*04:05 (Homo sapiens, UniProt P01903+P01911, A100R/A169T/D86S/F76Y/I96L/K127E/L162R/M171V/N62H/P40V/Q125Y/R42H/S133A/S149N/S66Y/V115G/V209L/W38E). The experiment can be described thus: competition binding assay, purified HLA DRB1*04:05.
The target of a further experiment is DRB3*02:02 (Homo sapiens, UniProt P01903+P79483, A212P/D57E/F66Y/L67A/R103Q/R218S/R40L/S89Y/T80R/V86D/Y55F/Y59H). The experiment can be described thus: competition binding assay, purified HLA DRB3*02:02.
For another experiment, the target named is T3, DPB1*03:01 (Homo sapiens, UniProt P04440+P20036, A65V/A84D/A85E/E86D/F38Y/G113D/G114E/G40L/I94L/L37V/M105V/M116V/P115A/R125K/T199I).
T3 sequence (P20036 29-260): T1 sequence (P20036 29-260)
T3 sequence (P04440 30-258 L37V/F38Y/G40L/A65V/A84D/A85E/E86D/I94L/M105V/G113D/G114E/P115A/M116V/R125K/T199I): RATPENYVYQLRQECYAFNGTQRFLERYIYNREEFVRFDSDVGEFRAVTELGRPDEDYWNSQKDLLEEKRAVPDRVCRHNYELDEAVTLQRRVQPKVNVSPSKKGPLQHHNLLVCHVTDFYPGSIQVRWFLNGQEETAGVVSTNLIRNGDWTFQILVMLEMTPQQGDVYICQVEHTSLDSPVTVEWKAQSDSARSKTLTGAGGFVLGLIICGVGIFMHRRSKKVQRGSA
The experiment can be described thus: competition binding assay, purified HLA DPB1*03:01.

A further experiment addresses DRB1*09:01 (Homo sapiens, UniProt P01903+P01911, A100R/A103E/D57H/D86V/F55Y/F60I/F76Y/I96F/K127E/L162R/M171V/P40D/Q125H/Q99R/R33Q/R42F/S133A/S66N/T210M/V115G/W38K/Y107V/Y59G/Y89S). The experiment can be described thus: competition binding assay, purified HLA DRB1*09:01.
For a further experiment, the target named is DRB1*07:01 (Homo sapiens, UniProt P01903+P01911, A100R/A102G/A103Q/D57E/D86V/E43K/F76Y/K127E/L162R/M171V/P40G/Q125H/Q99D/R33Q/R42Y/R54Q/S133A/S66F/T210M/V115G/Y107V/Y59L/Y89S). The experiment can be described thus: competition binding assay, purified HLA DRB1*07:01.
For a further experiment, the target named is DRB1*01:01 (Homo sapiens, UniProt P01903+P01911, A100R/D57E/F55L/F60I/F76Y/I96L/L162R/M171V/P40L/Q125E/R42F/V115G/Y59C). The experiment can be described thus: competition binding assay, purified HLA DRB1*01:01.
Another experiment addresses DRB1*11:01 (Homo sapiens, UniProt P01903+P01911, A100R/A169T/A87E/I96F/K41T/L162R/M171V/P40S/Q125H/Q178H/Q39Y/Q99D/R42S/S66Y/T262R/V115G/W38E). The experiment can be described thus: competition binding assay, purified HLA DRB1*11:01.
For the next experiment, the target named is DRB5*01:01 (Homo sapiens, UniProt P01903+Q30154). The experiment can be described thus: competition binding assay, purified HLA DRB5*01:01.
Where [1] appears, read: purified HLA, radiolabeled peptide competition, nM, read-out: binding to DRB4*01:01 (IC50).
Setting [2] is: purified HLA, radiolabeled peptide competition, nM, read-out: binding to DRB1*03:01 (IC50).
Setting [3] is: purified HLA, radiolabeled peptide competition, nM, read-out: binding to DRB1*04:05 (IC50).
[4] abbreviates: purified HLA, radiolabeled peptide competition, nM, read-out: binding to DRB3*02:02 (IC50).
Where [5] appears, read: purified HLA, radiolabeled peptide competition, nM, read-out: binding to DRB1*09:01 (IC50).
Where [6] appears, read: purified HLA, radiolabeled peptide competition, nM, read-out: binding to DRB1*07:01 (IC50).
Where [7] appears, read: purified HLA, radiolabeled peptide competition, nM, read-out: binding to DRB1*01:01 (IC50).
The mark [8] stands for this setting: purified HLA, radiolabeled peptide competition, nM, read-out: binding to DRB1*11:01 (IC50).
Setting [9] is: purified HLA, radiolabeled peptide competition, nM, read-out: binding to DRB5*01:01 (IC50).

The structures appear in SMILES notation. Positions count from the first letter of the chain named. Where two headings read alike, the source gives them in different places.

The term IC50 denotes the concentration that gives 50% inhibition. Consider `CSCC[C@H](NC(=O)[C@H](CCC(=O)O)NC(=O)[C@H](Cc1ccc(O)cc1)NC(=O)[C@H](C)NC(=O)[C@H](CCC(=O)O)NC(=O)[C@H](CC(N)=O)NC(=O)[C@@H](N)CC(=O)O)C(=O)N1CCC[C@H]1C(=O)N[C@@H](CO)C(=O)N[C@@H](CCC(=O)O)C(=O)N[C@@H](CCC(=O)O)C(=O)NCC(=O)N[C@@H](Cc1ccc(O)cc1)C(=O)N[C@@H](CCC(N)=O)C(=O)N[C@@H](CC(=O)O)C(=O)O`, for which the IC50 is over 10000 nM at DPB1*02:01; over 10000 nM on DRB4*01:01; over 10000 nM at DRB1*03:01; over 10000 nM at DPB1*04:02; 1940 nM on DRB1*04:05; over 10000 nM on DRB3*02:02. For the same molecule, the IC50 on DPB1*03:01 is over 10000 nM; on DRB1*09:01, 4600 nM; on DRB1*07:01, over 10000 nM; on DRB1*01:01, over 10000 nM; at DRB1*11:01, over 10000 nM; at DRB5*01:01, over 10000 nM.
Take `CSCC[C@H](NC(=O)[C@H](CCC(=O)O)NC(=O)[C@H](Cc1ccc(O)cc1)NC(=O)[C@H](C)NC(=O)[C@H](CCC(=O)O)NC(=O)[C@H](CC(N)=O)NC(=O)[C@@H](N)CC(=O)O)C(=O)N1CCC[C@H]1C(=O)N[C@@H](COP(=O)(O)O)C(=O)N[C@@H](CCC(=O)O)C(=O)N[C@@H](CCC(=O)O)C(=O)NCC(=O)N[C@@H](Cc1ccc(O)cc1)C(=O)N[C@@H](CCC(N)=O)C(=O)N[C@@H](CC(=O)O)C(=O)O`: the IC50 at DPB1*02:01 (purified HLA, radiolabeled peptide competition, nM, read-out: binding to DPB1*02:01 (IC50)) was over 10000 nM; at DRB4*01:01 (setting [1]), over 10000 nM; on DRB1*03:01 (setting [2]), over 10000 nM; at DPB1*04:02 (purified HLA, radiolabeled peptide competition, nM, read-out: binding to DPB1*04:02 (IC50)) it was over 10000 nM; at DRB1*04:05 (setting [3]), over 10000 nM; at DRB3*02:02 (setting [4]) it was over 10000 nM. In addition, the IC50 on DPB1*03:01 (purified HLA, radiolabeled peptide competition, nM, read-out: binding to DPB1*03:01 (IC50)) was over 10000 nM; on DRB1*09:01 (setting [5]), over 10000 nM; at DRB1*07:01 (setting [6]), over 10000 nM; on DRB1*01:01 (setting [7]) it was over 10000 nM; at DRB1*11:01 (setting [8]) it was over 10000 nM; at DRB5*01:01 (setting [9]), over 10000 nM.
With `CSCC[C@H](NC(=O)[C@@H](N)CCC(=O)O)C(=O)N1CCC[C@H]1C(=O)N[C@@H](COP(=O)(O)O)C(=O)N[C@@H](CCC(=O)O)C(=O)N[C@@H](CCC(=O)O)C(=O)NCC(=O)N[C@@H](Cc1ccc(O)cc1)C(=O)N[C@@H](CCC(N)=O)C(=O)N[C@@H](CC(=O)O)C(=O)N[C@@H](Cc1ccc(O)cc1)C(=O)N[C@@H](CCC(=O)O)C(=O)N1CCC[C@H]1C(=O)N[C@@H](CCC(=O)O)C(=O)N[C@@H](C)C(=O)O`, the concentration for half-maximal inhibition (IC50) on DPB1*02:01, on DRB4*01:01 (setting [1]), on DRB1*03:01 (setting [2]), on DPB1*04:02, at DRB1*04:05 (setting [3]) and on DRB3*02:02 (setting [4]) was over 10000 nM each time. Further, the IC50 at DPB1*03:01, at DRB1*09:01 (setting [5]), on DRB1*07:01 (setting [6]), on DRB1*01:01 (setting [7]), at DRB1*11:01 (setting [8]) and at DRB5*01:01 (setting [9]) was over 10000 nM each time.

The record behind these values is patent publication US20200095296A1, “USE OF PEPTIDES AS BIOMARKERS IN THE DIAGNOSIS, CONFIRMATION AND TREATMENT OF A NEUROLOGICAL DISORDER AND TCR AND/OR HLA IMMUNOPROFILING IN NEURODEGENERATIVE DISEASE” (THE TRUSTEES OF COLUMBIA UNIVERSITY IN THE CITY OF NEW YORK, priority 2017, published 2020).
